Data on 6 compounds can be found in paper PMC5613062 (Investigational New Drugs, 2017).

Series [1] deals with Calu-6 human non-small cell lung cancer xenograft. More on the design: method as in earlier work. The note with it: AZD6244 3 mg/kg BD; AZD2171 […] QD; ref IB; cited from earlier work.
Details of series [2]: method as in earlier work. The note with it: twice-daily oral dosing in SBE-CD, monkeys; no notable gastrointestinal tract or renal pathology; ref IB; cited from earlier work.
For series [3] the following is noted: ref Study D1532C00005, cited from earlier work.
The conditions of series [4]: cited from earlier work.
Details of series [5]: method as in product label. Conditions: ref product label, cited from earlier work.
Series [6] in a line: Pharmacokinetics alone and in combination, selumetinib + erlotinib arm.
Method: (§1) PK parameters were derived using non-compartmental analysis. Cmax and tmax were determined by visual inspection of the plasma concentration-time profiles. AUC(0–12) was calculated by the linear trapezoidal rule. Where more than one maximum occurred, the reported value was assigned to the first occurrence.
Series [7] concerns SW620 human colorectal cancer xenograft. More on the design: method as in earlier work. The note with it: ref IB, cited from earlier work.
Series [8] can be described thus: Pharmacokinetics alone and in combination, selumetinib + temsirolimus arm. Conditions: human, plasma, iv; for AUC(0-t) / AUC(0–12) / Cmax: geometric mean (% CV); for AUC(0-t): read-out: AUC(0–8); for AUC(0–12): read-out: AUC(0–12); for Cmax: read-out: Cmax; for tmax: median (range), read-out: tmax. The series is classed as in vivo, human.
Method: as §1
The subject of series [9] is Lovo colorectal cancer xenograft. More on the design: method as in earlier work. The note with it: rapamycin experiment, usual monotherapy schedules, doses not given; ref IB; cited from earlier work.
The mark [10] stands for this setting: NSCLC patients, single-agent erlotinib 150 mg.
Where [11] appears, read: geometric mean, QD cohorts, dosed alone, selumetinib 150 mg cohort (N = 13), erlotinib 100 mg QD.
The mark [12] stands for this setting: dosed alone, selumetinib 50 mg cohort (N = 25), temsirolimus 25 mg IV.
[13] abbreviates: dosed alone, selumetinib 75 mg cohort (N = 6), temsirolimus 25 mg IV.
Setting [14] is: dosed in combination, selumetinib 50 mg BID (N = 22) + temsirolimus 25 mg IV.
[15] abbreviates: dosed in combination, selumetinib 75 mg BID (N = 5) + temsirolimus 25 mg IV.

Like-named read-outs stand apart in the source and are kept apart here. Marks after values point to notes of the source that are not given here.

Consider `COc1cc2c(Oc3ccc4[nH]c(C)cc4c3F)ncnc2cc1OCCCN1CCCC1` [AZD2171, reference compound], for which the “Tumor growth inhibition as a % of control” value in series [1] was 49.6 % of control.

With `Cn1cnc2c(F)c(Nc3ccc(Br)cc3Cl)c(C(=O)NOCCO)cc21` [AZD6244 Hyd-Sulfate], the toxicity findings result in series [2] was “fluid and/or red colored feces”. Further, the “DLT in the first 22 days of dosing” value in series [3] (75 mg BD cohort, one DLT) was “CTCAE Grade 3 fatigue”. In addition, the “DLTs in the first 22 days of dosing” value in [3] (100mg BD cohort, two DLTs) is “pleural effusion and rash (both CTC AE Grade 3)”. For the same compound, the maximum tolerated dose in [3] (capsule formulation) was 75 mg BD. The “toxicity findings, 6-month study” value in series [4] (male mice dosed 8–15 weeks at the high dose level, ref IB) is recorded as “dilation of the corpus spongiosum”. In series [4] (mice dosed for up to one month, ref IB), the tissue mineralization result is listed as “multiple tissues (cornea, kidney, liver, myocardium, skeletal muscle, glandular stomach)”. Also, in [4] (mouse, in vivo, po), the “toxicity findings at non-tolerated dose levels” value was “gastrointestinal tract toxicity and hematopoietic atrophy”.

Turning to `C#Cc1cccc(Nc2ncnc3cc(OCCOC)c(OCCOC)cc23)c1` [Erlotinib, reference compound], in series [5] (setting [10]), the “Grade 3/4 diarrhea” value was 6%. In addition, the “Grade 3/4 rash” value in series [5] (setting [10]) is on record as 9%. In addition, the “median time to onset of diarrhea” value in [5] (setting [10]) is 12 days. Besides, in series [5] (setting [10]), the “median time to onset of rash” value is reported as 8 days. In addition, the “patients needing dose reduction for diarrhea” value in [5] (setting [10]) was 1%. The “patients needing dose reduction for rash” value in series [5] (setting [10]) is given as “Six”. For the same compound, the “study discontinuation due to diarrhea” value in series [5] (setting [10]) is 1%. The “study discontinuation due to rash” value in series [5] (setting [10]) is listed as 1%. Further, in series [5] (range 5 days to more than 9 months), the “median time to start of ILD-like symptoms after initiating therapy” value is on record as 39 days. The Cmax was 1681 (27.13) [13] ng/mL in series [6] (geometric mean (% CV), dosed alone, selumetinib 50 mg cohort (N = 14), erlotinib 100 mg QD); 1725 (30.11) ng/mL in [6] (geometric mean (% CV), dosed in combination, selumetinib 50 mg BID (N = 12) + erlotinib 100 mg QD); 1739 (39.86) ng/mL in series [6] (geometric mean (% CV), dosed in combination, selumetinib 75 mg BID (N = 6) + erlotinib 100 mg QD); 1180 ng/mL in [6] (geometric mean, QD cohorts, dosed alone, selumetinib 100 mg cohort (N = 6), erlotinib 100 mg QD); 1980^c ng/mL in series [6] (setting [11]); 1468^d ng/mL in series [6] (geometric mean, QD cohorts, in combination, selumetinib 50 mg (N = 6) + erlotinib 100 mg QD). The Cmax worked out at 1420 ng/mL in [6] (human, plasma, oral, Cmax, geometric mean (% CV), dosed alone, selumetinib 75 mg cohort (N = 6), erlotinib 100 mg QD); 1620 ng/mL in series [6] (human, plasma, oral, Cmax, geometric mean, QD cohorts, dosed alone, selumetinib 50 mg cohort (N = 7), erlotinib 100 mg QD); 1430 ng/mL in [6] (human, plasma, oral, Cmax, geometric mean, QD cohorts, in combination, selumetinib 100 mg (N = 6) + erlotinib 100 mg QD); 2030 ng/mL in series [6] (human, plasma, oral, Cmax, geometric mean, QD cohorts, in combination, selumetinib 150 mg (N = 12) + erlotinib 100 mg QD). Also, the “AUC(0–8)” value in series [6] (setting [11]) is recorded as 12,710^c ng•h/mL. Moreover, the tmax is 1.5 h in [6] (human, plasma, oral); 1.5 h in series [6] (human, plasma, oral, 100 mg); 2.00 (1.00–6.00)^c h in series [6] (median (range), QD cohorts, dosed alone, selumetinib 150 mg cohort (N = 13), erlotinib 100 mg QD); 4.00 (1.00–8.00)^d h in series [6] (median (range), QD cohorts, in combination, selumetinib 50 mg (N = 6) + erlotinib 100 mg QD); 3.0 (2.0–6.0) h in series [6] (median (range), dosed alone, selumetinib 75 mg cohort (N = 6), erlotinib 100 mg QD). Moreover, the AUC(0-t) in series [6] (human, plasma, oral, 100 mg, AUC(0–8), geometric mean, QD cohorts, dosed alone, selumetinib 100 mg cohort (N = 6), erlotinib 100 mg QD) is 7100 ng·h/mL; in [6] (human, plasma, oral, 100 mg, AUC(0–12), geometric mean, QD cohorts, dosed alone, selumetinib 100 mg cohort (N = 6), erlotinib 100 mg QD), 10300 ng·h/mL; in series [6] (human, plasma, oral, AUC(0–8), geometric mean (% CV), dosed alone, selumetinib 50 mg cohort (N = 14), erlotinib 100 mg QD) it was 10100 ng·h/mL; in [6] (human, plasma, oral, AUC(0–8), geometric mean (% CV), dosed alone, selumetinib 75 mg cohort (N = 6), erlotinib 100 mg QD) it was 9590 ng·h/mL; in series [6] (human, plasma, oral, AUC(0–8), geometric mean (% CV), dosed in combination, selumetinib 50 mg BID (N = 12) + erlotinib 100 mg QD) it was 10400 ng·h/mL; in series [6] (human, plasma, oral, AUC(0–8), geometric mean (% CV), dosed in combination, selumetinib 75 mg BID (N = 6) + erlotinib 100 mg QD), 10400 ng·h/mL. In addition, the AUC(0-t) in series [6] (human, plasma, oral, AUC(0–8), geometric mean, QD cohorts, dosed alone, selumetinib 50 mg cohort (N = 7), erlotinib 100 mg QD) stood at 9620 ng·h/mL; in series [6] (human, plasma, oral, AUC(0–8), geometric mean, QD cohorts, in combination, selumetinib 50 mg (N = 6) + erlotinib 100 mg QD), 8600 ng·h/mL; in series [6] (human, plasma, oral, AUC(0–8), geometric mean, QD cohorts, in combination, selumetinib 100 mg (N = 6) + erlotinib 100 mg QD) it was 8500 ng·h/mL; in series [6] (human, plasma, oral, AUC(0–8), geometric mean, QD cohorts, in combination, selumetinib 150 mg (N = 12) + erlotinib 100 mg QD), 13000 ng·h/mL; in series [6] (human, plasma, oral, AUC(0–12), geometric mean (% CV), dosed alone, selumetinib 50 mg cohort (N = 14), erlotinib 100 mg QD) it was 14500 ng·h/mL; in [6] (human, plasma, oral, AUC(0–12), geometric mean (% CV), dosed alone, selumetinib 75 mg cohort (N = 6), erlotinib 100 mg QD), 13800 ng·h/mL. The AUC(0-t) in series [6] (human, plasma, oral, AUC(0–12), geometric mean (% CV), dosed in combination, selumetinib 50 mg BID (N = 12) + erlotinib 100 mg QD) was 14700 ng·h/mL; in [6] (human, plasma, oral, AUC(0–12), geometric mean (% CV), dosed in combination, selumetinib 75 mg BID (N = 6) + erlotinib 100 mg QD), 14700 ng·h/mL; in [6] (human, plasma, oral, AUC(0–12), geometric mean, QD cohorts, dosed alone, selumetinib 50 mg cohort (N = 7), erlotinib 100 mg QD), 14000 ng·h/mL; in series [6] (human, plasma, oral, AUC(0–12), geometric mean, QD cohorts, dosed alone, selumetinib 150 mg cohort (N = 13), erlotinib 100 mg QD), 18300 ng·h/mL; in series [6] (human, plasma, oral, AUC(0–12), geometric mean, QD cohorts, in combination, selumetinib 100 mg (N = 6) + erlotinib 100 mg QD), 12000 ng·h/mL; in [6] (human, plasma, oral, AUC(0–12), geometric mean, QD cohorts, in combination, selumetinib 150 mg (N = 12) + erlotinib 100 mg QD), 18600 ng·h/mL. In [6] (selumetinib + erlotinib arm), the “PK parameters when administered alone and in combination” value is recorded as “similar”.

On to `CCc1c2c(nc3ccc(OC(=O)N4CCC(N5CCCCC5)CC4)cc13)-c1cc3c(c(=O)n1C2)COC(=O)[C@]3(O)CC` [Irinotecan], for which the “Tumor growth inhibition as a % of control” value in series [7] (AZD6244 25 mg/kg BD, irinotecan 25 mg/kg once weekly, docetaxel 15 mg/kg once weekly) was 67 % of control.

`CO[C@H]1C[C@@H]2CC[C@@H](C)[C@@](O)(O2)C(=O)C(=O)N2CCCC[C@H]2C(=O)O[C@H]([C@H](C)C[C@@H]2CC[C@@H](O)[C@H](OC)C2)CC(=O)[C@H](C)/C=C(\C)[C@@H](O)[C@@H](OC)C(=O)[C@H](C)C[C@H](C)/C=C/C=C/C=C/1C` [Sirolimus]: the AUC(0-t) in series [8] (setting [12]) was found to be 341 ng·h/mL; in series [8] (setting [13]), 266 ng·h/mL; in series [8] (setting [14]) it was 394 ng·h/mL; in series [8] (setting [15]), 292 ng·h/mL. For the same compound, the AUC(0–12) in series [8] (setting [12]) was 514 ng·h/mL; in [8] (setting [13]) it was 382 ng·h/mL; in series [8] (setting [14]) it was 584 ng·h/mL; in series [8] (setting [15]) it was 360 ng·h/mL. Further, the Cmax in series [8] (setting [12]) is 58.5 ng/mL; in series [8] (setting [13]), 49.5 ng/mL; in series [8] (setting [14]), 67 ng/mL; in series [8] (setting [15]), 51.2 ng/mL. For the same compound, the tmax turned out to be 1.5 h in series [8] (setting [12]), 2 h in [8] (setting [13]), 1.5 h in series [8] (setting [14]) and 2 h in [8] (setting [15]). Further, the “Tumor growth inhibition as a % of control” value in [9] is recorded as 38 % of control.

On to `Cn1nnc2c(C(N)=O)ncn2c1=O` [Temozolamide], for which, in [7] (temozolamide experiment, usual monotherapy schedules, doses not given), the “Tumor growth inhibition as a % of control” value is 15 % of control.
